Results published in patent US11730746B2, “17beta-heterocyclyl-digitalis like compounds for the treatment of heart failure” (priority 2018, dated 2023).

Legend:
[1] = Acute toxicity (LD50) in mouse; settings: Albino Swiss CD-1, in vivo, single administration
Procedure: 194. Acute toxicity has been determined in the mouse (Albino Swiss CD-1, body weight 30 g). Mice were orally treated, or intravenously injected, with single administration of increasing doses of the test substance to identify the dose causing 50% mortality. Mortality occurred within 30 min after the administration and survival after 24 h. The acute toxicity (LD50) was then assessed.
The acute toxicity of the tested compound CVie 101 has been determined in the mouse (Albino Swiss CD-1, body weight 30 g). CVie 101 has been orally administered or intravenously injected at increasing doses to identify the dose causing 50% mortality. Mortality occurred within 30 min after the administration and survival after 24 h.

STZ diabetic rats = assay: Haemodynamics in streptozotocin diabetic rats (echocardiography); type: in vivo, rat; settings: 20 mg/kg os, after treatment, mean ± SD, n = 12
Procedure: Sprague Dawley male rats (150-175 g) were made diabetic by a single injection into the tail vein of a solution of streptozotocin (STZ, 50 mg/kg, Sigma-Aldrich), freshly prepared in 0.1 M sodium citrate buffer, pH 4.5. Control rats received citrate buffer. Fasting glycaemia was measured after 1 week and rats with values >400 mg/dl were considered diabetic.
Eight-nine weeks after STZ injection, rats were submitted to transthoracic echocardiographic and Doppler evaluation performed under pentobarbital anesthesia. Two-dimensionally guided M-mode recordings were used to obtain short-axis measurements of left ventricular end-diastolic diameter (LVEDD), left ventricular end-systolic diameter (LVESD), posterior (PW) and septal (SW) diastolic wall thickness according to the American Society of Echocardiography guidelines (Lang R M et al. Eur J Echocardiography 2006; 7:79-108). Fractional shortening was calculated as FS=(LVEDD-LVESD)/LVEDD. Relative wall thickness was calculated as PWTd+IVSTd/LVEDD.
Mitral inflow was measured by pulsed Doppler at the tips of mitral leaflets from an apical 4-chamber view to obtain early and late filling velocities (E, A) and deceleration time of early filling velocity (DT). The deceleration slope was calculated as E/DT ratio. The mitral deceleration index was calculated as DT/E ratio.
Tissue Doppler Imaging (TDI) was evaluated from the apical 4-chamber view to record septal mitral annular movements, i.e., peak myocardial systolic (s′) and early and late diastolic velocity (e′ and a′).
Compound CVie 101 was orally administered to STZ injected rats at the dose of 20 mg/kg and echocardiographic parameters were measured after 1 h.

[2] = biological target: T1, CYP19 (CYP450, 19; aromatase) (Homo sapiens, UniProt P11511); assay: Eurofins panel 118040; type: biochemical; settings: crude membrane preparations
T1 construct: Eurofins 118040
Procedure: (§1) Radioligand binding to a panel of receptors was carried out by Eurofins on crude membrane preparations according to published procedures and by using appropriate reference standard (Eurofins, CVie 101 compound code PT #1207859, study #AB76416, quote #68407-1, for Cvie Therapeutics Limited, Taiwan (R.OC.) on Mar. 5, 2017). CVie 101 was tested at the concentration of 10 μM. No significant interaction was documented, except for Sodium Channel, site 2 from rat (cat #279510), where a significant response (≥50%) was noted (Table 7).

[3] = biological target: T2, Peptidase, Angiotensin Converting Enzyme (Oryctolagus cuniculus, UniProt P12822); assay: Eurofins panel 107300; type: biochemical, rabbit
T2 construct: Eurofins 107300

Adenosine A1 = biological target: T3, Adenosine A1 (Homo sapiens, UniProt P30542); assay: Receptor binding 200510
T3 construct: Eurofins 200510; host or cells: crude membrane preparation
Procedure: as §1

Adenosine A2A = biological target: T4, Adenosine A2A (Homo sapiens, UniProt P29274); assay: Receptor binding 200610
T4 construct: Eurofins 200610; host or cells: crude membrane preparation
Procedure: as §1

Adrenergic β2 = biological target: T5, Adrenergic β2 (Homo sapiens, UniProt P07550); assay: Receptor binding 204110
T5 construct: Eurofins 204110; host or cells: crude membrane preparation
Procedure: as §1

Aldosterone = biological target: T6, Aldosterone (Rattus norvegicus, UniProt P22199); assay: Receptor binding 204600
T6 construct: Eurofins 204600
Procedure: as §1

Dopamine D2s = biological target: T7, Dopamine D2s (Homo sapiens, UniProt P14416); assay: Receptor binding 219700
T7 construct: Eurofins 219700; host or cells: crude membrane preparation
Procedure: as §1

Histamine H1 = biological target: T8, Histamine H1 (Homo sapiens, UniProt P35367); assay: Receptor binding 239610
T8 construct: Eurofins (contract assay) 239610
Procedure: as §1

Phorbol Ester = assay: Receptor binding 264500; set-up: species or system mouse; settings: 10 μM
Procedure: as §1

Potassium Channel (KATP) = biological target: T9, Potassium Channel (KATP) (Cricetus cricetus, UniProt Q09427); assay: Receptor binding 265600; set-up: species or system hamster
T9 construct: Eurofins (contract assay) 265600
Procedure: as §1

Progesterone PR-B = biological target: T10, Progesterone PR-B (Homo sapiens, UniProt P06401); assay: Receptor binding 299005
T10 construct: Eurofins (contract assay) 299005
Procedure: as §1

[4] = rats, study i.v. 1 mg/kg and os 10 mg/kg, mean

T10 sequence (P06401 whole entry): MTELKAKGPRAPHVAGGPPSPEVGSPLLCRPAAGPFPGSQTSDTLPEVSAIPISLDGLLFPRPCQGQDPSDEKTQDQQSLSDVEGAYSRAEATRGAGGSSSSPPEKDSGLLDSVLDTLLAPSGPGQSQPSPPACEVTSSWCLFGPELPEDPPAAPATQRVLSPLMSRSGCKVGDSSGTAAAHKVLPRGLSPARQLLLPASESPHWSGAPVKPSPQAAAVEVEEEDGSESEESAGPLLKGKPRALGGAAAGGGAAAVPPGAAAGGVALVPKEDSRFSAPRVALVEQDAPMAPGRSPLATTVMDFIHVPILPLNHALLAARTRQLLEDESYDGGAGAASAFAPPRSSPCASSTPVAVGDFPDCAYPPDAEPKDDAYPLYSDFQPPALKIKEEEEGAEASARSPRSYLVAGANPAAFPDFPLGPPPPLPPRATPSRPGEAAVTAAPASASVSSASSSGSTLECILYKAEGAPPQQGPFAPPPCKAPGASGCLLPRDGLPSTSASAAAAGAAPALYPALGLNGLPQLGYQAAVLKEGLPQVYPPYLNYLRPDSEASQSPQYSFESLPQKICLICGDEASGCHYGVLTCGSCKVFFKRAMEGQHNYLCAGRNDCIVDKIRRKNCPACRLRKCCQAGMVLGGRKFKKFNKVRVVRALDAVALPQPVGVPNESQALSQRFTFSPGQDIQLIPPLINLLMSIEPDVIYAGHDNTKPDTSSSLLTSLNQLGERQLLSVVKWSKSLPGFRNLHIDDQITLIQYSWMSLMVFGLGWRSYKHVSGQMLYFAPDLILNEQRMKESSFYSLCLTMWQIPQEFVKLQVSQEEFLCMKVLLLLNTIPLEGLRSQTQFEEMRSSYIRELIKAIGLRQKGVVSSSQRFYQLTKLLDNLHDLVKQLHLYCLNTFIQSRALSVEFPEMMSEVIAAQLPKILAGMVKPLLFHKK
T6 sequence (P22199 whole entry): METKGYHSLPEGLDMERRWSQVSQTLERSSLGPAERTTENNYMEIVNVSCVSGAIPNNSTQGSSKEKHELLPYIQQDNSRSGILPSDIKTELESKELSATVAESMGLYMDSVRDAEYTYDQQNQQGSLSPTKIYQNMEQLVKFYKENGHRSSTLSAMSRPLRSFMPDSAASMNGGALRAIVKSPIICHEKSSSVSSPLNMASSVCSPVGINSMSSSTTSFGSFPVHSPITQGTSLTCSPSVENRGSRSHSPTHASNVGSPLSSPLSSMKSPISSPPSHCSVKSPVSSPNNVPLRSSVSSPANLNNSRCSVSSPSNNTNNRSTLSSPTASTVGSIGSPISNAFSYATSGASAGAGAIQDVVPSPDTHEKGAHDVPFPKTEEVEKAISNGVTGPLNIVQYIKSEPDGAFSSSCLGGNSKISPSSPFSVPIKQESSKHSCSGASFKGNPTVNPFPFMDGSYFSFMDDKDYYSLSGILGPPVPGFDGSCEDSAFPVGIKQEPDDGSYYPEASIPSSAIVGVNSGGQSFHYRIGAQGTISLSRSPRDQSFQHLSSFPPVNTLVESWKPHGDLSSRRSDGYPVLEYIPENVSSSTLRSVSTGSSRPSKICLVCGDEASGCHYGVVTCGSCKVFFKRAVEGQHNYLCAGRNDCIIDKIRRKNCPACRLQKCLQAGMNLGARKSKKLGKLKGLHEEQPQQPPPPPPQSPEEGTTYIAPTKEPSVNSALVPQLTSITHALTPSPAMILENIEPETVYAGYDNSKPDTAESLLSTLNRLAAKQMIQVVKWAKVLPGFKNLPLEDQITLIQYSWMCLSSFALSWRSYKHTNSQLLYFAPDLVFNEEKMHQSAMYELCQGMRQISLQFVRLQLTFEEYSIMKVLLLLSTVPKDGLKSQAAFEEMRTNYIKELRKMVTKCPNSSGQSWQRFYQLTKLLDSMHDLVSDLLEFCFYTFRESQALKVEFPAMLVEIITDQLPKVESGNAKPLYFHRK
T1 sequence (P11511 whole entry): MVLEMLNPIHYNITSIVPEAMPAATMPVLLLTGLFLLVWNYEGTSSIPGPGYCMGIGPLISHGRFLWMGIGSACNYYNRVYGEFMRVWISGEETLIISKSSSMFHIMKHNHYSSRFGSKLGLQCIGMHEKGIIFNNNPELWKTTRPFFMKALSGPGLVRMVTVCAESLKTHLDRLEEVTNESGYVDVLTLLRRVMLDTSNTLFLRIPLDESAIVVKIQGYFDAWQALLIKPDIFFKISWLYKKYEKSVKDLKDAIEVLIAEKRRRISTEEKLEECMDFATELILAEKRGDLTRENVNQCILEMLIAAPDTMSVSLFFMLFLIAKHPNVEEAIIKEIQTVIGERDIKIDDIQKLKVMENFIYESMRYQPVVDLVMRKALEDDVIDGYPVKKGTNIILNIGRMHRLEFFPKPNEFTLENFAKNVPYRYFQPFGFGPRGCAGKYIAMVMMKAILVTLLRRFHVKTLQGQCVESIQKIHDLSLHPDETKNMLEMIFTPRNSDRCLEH
T7 sequence (P14416 1-414 isoform P14416-2): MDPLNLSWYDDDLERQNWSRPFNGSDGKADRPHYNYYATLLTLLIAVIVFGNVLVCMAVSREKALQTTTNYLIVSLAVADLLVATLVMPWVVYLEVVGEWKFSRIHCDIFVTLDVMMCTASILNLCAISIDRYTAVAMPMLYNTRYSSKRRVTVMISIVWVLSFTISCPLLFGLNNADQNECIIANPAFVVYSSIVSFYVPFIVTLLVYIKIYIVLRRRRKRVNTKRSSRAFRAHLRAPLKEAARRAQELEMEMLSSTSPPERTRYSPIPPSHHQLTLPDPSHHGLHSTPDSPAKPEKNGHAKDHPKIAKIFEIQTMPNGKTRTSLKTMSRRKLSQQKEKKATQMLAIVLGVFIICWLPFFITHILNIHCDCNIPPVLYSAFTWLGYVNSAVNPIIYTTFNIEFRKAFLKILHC
T5 sequence (P07550 whole entry): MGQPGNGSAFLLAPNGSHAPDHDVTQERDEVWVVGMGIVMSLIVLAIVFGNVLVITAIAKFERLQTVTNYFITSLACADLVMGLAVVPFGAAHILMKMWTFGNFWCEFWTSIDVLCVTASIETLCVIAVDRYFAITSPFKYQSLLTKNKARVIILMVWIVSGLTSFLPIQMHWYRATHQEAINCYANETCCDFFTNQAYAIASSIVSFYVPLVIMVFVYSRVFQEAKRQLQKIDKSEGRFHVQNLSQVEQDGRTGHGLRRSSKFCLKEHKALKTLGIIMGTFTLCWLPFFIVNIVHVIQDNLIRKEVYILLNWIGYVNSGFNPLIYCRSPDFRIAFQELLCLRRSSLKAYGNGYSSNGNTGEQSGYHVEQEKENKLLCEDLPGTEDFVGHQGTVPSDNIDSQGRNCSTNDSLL
T8 sequence (P35367 whole entry): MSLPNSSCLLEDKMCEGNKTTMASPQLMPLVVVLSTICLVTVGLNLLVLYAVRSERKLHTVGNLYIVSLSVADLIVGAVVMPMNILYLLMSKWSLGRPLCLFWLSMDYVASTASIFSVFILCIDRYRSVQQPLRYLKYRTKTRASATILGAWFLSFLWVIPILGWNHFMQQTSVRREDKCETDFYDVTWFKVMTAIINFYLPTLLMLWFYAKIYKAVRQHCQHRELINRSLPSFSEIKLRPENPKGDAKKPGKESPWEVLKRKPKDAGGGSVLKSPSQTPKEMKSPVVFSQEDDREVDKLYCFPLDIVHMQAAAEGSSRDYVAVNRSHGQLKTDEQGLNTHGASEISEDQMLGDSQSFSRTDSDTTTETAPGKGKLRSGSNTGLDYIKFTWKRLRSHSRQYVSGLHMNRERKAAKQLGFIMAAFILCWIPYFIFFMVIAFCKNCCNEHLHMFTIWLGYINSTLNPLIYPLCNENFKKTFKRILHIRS
T3 sequence (P30542 whole entry): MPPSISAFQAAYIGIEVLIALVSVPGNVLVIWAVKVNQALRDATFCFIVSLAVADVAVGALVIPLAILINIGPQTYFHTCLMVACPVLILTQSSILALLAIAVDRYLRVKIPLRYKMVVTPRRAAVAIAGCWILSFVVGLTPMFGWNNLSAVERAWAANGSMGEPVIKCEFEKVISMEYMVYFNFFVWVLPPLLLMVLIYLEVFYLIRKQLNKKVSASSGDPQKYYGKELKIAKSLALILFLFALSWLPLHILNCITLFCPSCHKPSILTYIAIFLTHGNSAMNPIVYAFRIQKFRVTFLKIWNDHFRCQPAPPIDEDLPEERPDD
T4 sequence (P29274 whole entry): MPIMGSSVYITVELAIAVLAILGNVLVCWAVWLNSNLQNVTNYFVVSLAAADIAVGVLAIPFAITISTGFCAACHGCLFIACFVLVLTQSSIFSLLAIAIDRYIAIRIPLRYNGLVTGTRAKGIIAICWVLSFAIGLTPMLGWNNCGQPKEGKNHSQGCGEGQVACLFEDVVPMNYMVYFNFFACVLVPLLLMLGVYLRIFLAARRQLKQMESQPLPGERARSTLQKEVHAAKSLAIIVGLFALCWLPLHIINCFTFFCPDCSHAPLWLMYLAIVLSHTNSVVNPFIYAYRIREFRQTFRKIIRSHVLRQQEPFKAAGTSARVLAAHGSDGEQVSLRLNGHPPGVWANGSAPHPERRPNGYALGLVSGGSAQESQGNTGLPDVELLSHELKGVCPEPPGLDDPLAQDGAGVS

With C[C@]12CC[C@H](O)C[C@H]1CCC1C2CC[C@]2(C)[C@@H](c3c[nH]cn3)CC[C@]12O (stereo partly drawn) [CVie 101, 3β-hydroxy-5β-10β-methyl-13β-methyl-14β-hydroxy-17β-(imidazol-4-yl)androstane] the LD50 at 24 h ([1]; iv) was 20 mg/kg, the LD50 at 24 h ([1]; oral, os) was 350 mg/kg and the “A (late filling velocity of mitral inflow)” value (STZ diabetic rats) was 0.76 ± 0.17 m/s. For the same compound, the “A′ (TDI late relaxation velocity)” value (STZ diabetic rats) was 28.7 ± 6.6 cm/s, the “CO (cardiac output)” value (STZ diabetic rats) was 219.0 ± 76.7 mL/min and the “DT (deceleration time of E wave)” value (STZ diabetic rats) was 47.7 ± 4.8 ms. For the same compound, the “DT/E (mitral deceleration index)” value (STZ diabetic rats) was 51.0 ± 10.2 ms·s/m, the “E (early filling velocity of mitral inflow)” value (STZ diabetic rats) was 0.96 ± 0.14 m/s and the “E/A (index of LV function)” value (STZ diabetic rats) was 1.29 ± 0.22. The “E/DT (deceleration slope)” value (STZ diabetic rats) was 20.3 ± 4.1 m/s2, the “E/e′ (index of LV filling pressure)” value (STZ diabetic rats) was 38.0 ± 4.9 and the “E′ (TDI early relaxation velocity)” value (STZ diabetic rats) was 25.2 ± 1.9 cm/s. The “FS (fractional shortening)” value (STZ diabetic rats) was 45.1 ± 3.4 %, the “HR (heart rate)” value (STZ diabetic rats) was 262 ± 48.1 beat/min and the “SV (stroke volume)” value (STZ diabetic rats) was 0.82 ± 0.21 ml/beat. For the same compound, the “S′ (TDI contraction velocity)” value (STZ diabetic rats) was 23.8 ± 3.6 cm/s, the inhibition at 10 µM [2] was 36% and the inhibition at 10 µM [3] was 5%. It also gave an inhibition at 10 µM (Adenosine A1) of -4%, an inhibition at 10 µM (Adenosine A2A) of 0% and an inhibition at 10 µM (Adrenergic β2) of 1%. The inhibition at 10 µM (Aldosterone) was 6%, the inhibition at 10 µM (Dopamine D2s) was 4% and the inhibition at 10 µM (Histamine H1) was 13%. The “% inhib” value (Phorbol Ester) was −4%, the inhibition at 10 µM (Potassium Channel (KATP)) was -6% and the inhibition at 10 µM (Progesterone PR-B) was 10%. The AUC(0-inf) (Bioavailability in rats; rat, in vivo, 10 mg/kg) was 2490 ng·h/mL, the AUC(0-t) (Bioavailability in rats; rat, in vivo, 10 mg/kg) was 2430 ng·h/mL and the Cmax (Bioavailability in rats; rat, in vivo, 10 mg/kg) was 1020 ng/mL. It also gave an MRT last (Bioavailability in rats; rat, in vivo, 10 mg/kg) of 2.03 h, a Tmax (Bioavailability in rats; rat, in vivo, 10 mg/kg) of 0.5 h and a half-life (Bioavailability in rats; rat, in vivo, 10 mg/kg) of 2.21 h. It also gave a bioavailability (Bioavailability in rats; rat, in vivo, po, 10 mg/kg) of 66.3%, a Cl_F_pred (Bioavailability in rats; [4]) of 81.3 mL/min/kg and a Vz_F_pred (Bioavailability in rats; [4]) of 14.29 L/kg.
